# pIC50: −log10 of the molar value. Read-outs that look alike come from different tables or passages of the source.
# How the values were obtained:
# NCI-H820 cells = assay: Large cell panel proliferation profiling study; type: cell-based; settings: NCI-H820, read-out: IC50, proliferation
# [1] = test system: advanced EGFRm+ T790M NSCLC; assay: Radiographic tumor response; type: in vivo, human; settings: for tumor shrinkage: 20 mg once daily
# HER2 (ErbB2) = HER2 (ErbB2) (Homo sapiens, UniProt P04626); assay: Cellular HER2 phosphorylation; type: cell-based; settings: three cellular approaches
# [2] = Pharmacokinetics after oral dosing in the mouse; type: in vivo
# [3] = test system: lines harboring EGFR T790M (H1975, HCC827/ER1, PC-9/BRc1 and H3255/XLR); settings: independent laboratory
# [4] = test system: Parental EGFRm+ lines (PC-9, H3255, HCC827, HCC4006, 11-18); assay: Growth inhibition assay; type: cell-based; settings: independent laboratory
# [5] = test system: approximately 280 other kinases; assay: Commercial biochemical kinome panel
# [6] = test system: EGFR^L858R + T790M driven lung adenocarcinomas (C/L+T mice); assay: C/L+T transgenic lung adenocarcinoma model; settings: AZD9291 5 mg/kg/day, afatinib 7.5 mg/kg/day, AZ5104 5 mg/kg/day; one to two weeks
# [7] = test system: phospho-EGFR (Tyr1173) in H1975 xenografts; assay: Pharmacodynamics in H1975 xenografts; type: in vivo, mouse; settings: single dose 5 mg/kg
# [8] = test system: lines harboring non-T790M resistance: 11-18/ER (NRAS), HCC827/ER2 (MET amplification), HCC4006/ER (EMT); settings: independent laboratory
# EBC-1 cells = assay: Large cell panel proliferation profiling study; type: cell-based; settings: Homo sapiens, EBC-1, read-out: IC50, proliferation
# [9] = Body weight of xenograft-bearing mice on daily dosing; type: in vivo, mouse; settings: daily dosing for 200 days, PC-9 and H1975 studies
# [10] = Adverse events and blood glucose in two patients, AURA Phase 1; type: in vivo, human
# [11] = test system: PC-9 (ex19del) tumor xenograft; assay: PC-9
# IGF-1R = IGF-1R (Homo sapiens, UniProt P08069); assay: Cellular IGF-1R phosphorylation assay; type: cell-based; settings: cellular phosphorylation assay as surrogate
# A431 xenografts = settings: 5 mg/kg/day
# [12] = test system: H1781 cells (VC insertion at G776 in exon 20 of HER2); assay: Growth inhibition of HER2 mutant H1781 cells; type: cell-based; settings: NCI-H1781, read-out: IC50, growth
# [13] = Preliminary clinical pharmacokinetics, AURA Phase 1; type: in vivo, human
# [14] = test system: EGFR^L858R driven lung adenocarcinomas (C/L858R mice); assay: C/L858R transgenic lung adenocarcinoma model
# [15] = test system: phospho-EGFR and downstream markers; settings: 5mg/kg dosing
# [16] = Blood glucose and insulin levels after single oral dose in rats; type: in vivo, rat; settings: single oral dose of 200 mg/kg, over a 24 hour period
# [17] = test system: EGFR L861Q, G719S and exon 19 insertion (I744-K745insKIPVAI); assay: Phospho-EGFR immunoblot in transfected 293 cells, rare sensitive mutants; type: cell-based; settings: 6 hours
# [18] = target: wild-type EGFR (A431, LOVO, NCI-H2073) (Homo sapiens, UniProt P00533); assay: In vitro EGFR phosphorylation assay; type: cell-based; settings: read-out: potency against wild-type EGFR
# [19] = test system: mutant and wild-type EGFR cell lines; assay: Sytox phenotypic assay across cell lines; type: cell-based
# [20] = target: EGFR variant III (EGFRvIII) (Homo sapiens, UniProt P00533, DELINS30-297G); assay: Phospho-EGFR immunoblot in transfected 293 cells, EGFRvIII; type: cell-based; settings: 6 hours
# [21] = test system: EGFR in mutant and wild-type cell lines; assay: In vitro EGFR phosphorylation assay, mutant and wild-type cell lines overall; settings: compared to AZD9291
# [22] = test system: wild-type EGFR cell lines (Calu3, H2073); assay: Sytox Green live/dead cell phenotype assay, wild-type EGFR lines; type: cell-based; settings: compared to AZD9291
# [23] = test system: T790M EGFR cell lines (H1975, PC-9VanR); settings: compared to AZD9291
# [24] = test system: EGFR^L858R driven lung adenocarcinomas (C/L858R mice); settings: cited from earlier work
# [25] = test system: EGFR^L858R + T790M driven lung adenocarcinomas (C/L+T mice); settings: cited from earlier work
# [26] = patients, AZD9291 mesylate 20 mg oral, preliminary
# IGF-1R, sequence (P08069 31-1367, species assumed): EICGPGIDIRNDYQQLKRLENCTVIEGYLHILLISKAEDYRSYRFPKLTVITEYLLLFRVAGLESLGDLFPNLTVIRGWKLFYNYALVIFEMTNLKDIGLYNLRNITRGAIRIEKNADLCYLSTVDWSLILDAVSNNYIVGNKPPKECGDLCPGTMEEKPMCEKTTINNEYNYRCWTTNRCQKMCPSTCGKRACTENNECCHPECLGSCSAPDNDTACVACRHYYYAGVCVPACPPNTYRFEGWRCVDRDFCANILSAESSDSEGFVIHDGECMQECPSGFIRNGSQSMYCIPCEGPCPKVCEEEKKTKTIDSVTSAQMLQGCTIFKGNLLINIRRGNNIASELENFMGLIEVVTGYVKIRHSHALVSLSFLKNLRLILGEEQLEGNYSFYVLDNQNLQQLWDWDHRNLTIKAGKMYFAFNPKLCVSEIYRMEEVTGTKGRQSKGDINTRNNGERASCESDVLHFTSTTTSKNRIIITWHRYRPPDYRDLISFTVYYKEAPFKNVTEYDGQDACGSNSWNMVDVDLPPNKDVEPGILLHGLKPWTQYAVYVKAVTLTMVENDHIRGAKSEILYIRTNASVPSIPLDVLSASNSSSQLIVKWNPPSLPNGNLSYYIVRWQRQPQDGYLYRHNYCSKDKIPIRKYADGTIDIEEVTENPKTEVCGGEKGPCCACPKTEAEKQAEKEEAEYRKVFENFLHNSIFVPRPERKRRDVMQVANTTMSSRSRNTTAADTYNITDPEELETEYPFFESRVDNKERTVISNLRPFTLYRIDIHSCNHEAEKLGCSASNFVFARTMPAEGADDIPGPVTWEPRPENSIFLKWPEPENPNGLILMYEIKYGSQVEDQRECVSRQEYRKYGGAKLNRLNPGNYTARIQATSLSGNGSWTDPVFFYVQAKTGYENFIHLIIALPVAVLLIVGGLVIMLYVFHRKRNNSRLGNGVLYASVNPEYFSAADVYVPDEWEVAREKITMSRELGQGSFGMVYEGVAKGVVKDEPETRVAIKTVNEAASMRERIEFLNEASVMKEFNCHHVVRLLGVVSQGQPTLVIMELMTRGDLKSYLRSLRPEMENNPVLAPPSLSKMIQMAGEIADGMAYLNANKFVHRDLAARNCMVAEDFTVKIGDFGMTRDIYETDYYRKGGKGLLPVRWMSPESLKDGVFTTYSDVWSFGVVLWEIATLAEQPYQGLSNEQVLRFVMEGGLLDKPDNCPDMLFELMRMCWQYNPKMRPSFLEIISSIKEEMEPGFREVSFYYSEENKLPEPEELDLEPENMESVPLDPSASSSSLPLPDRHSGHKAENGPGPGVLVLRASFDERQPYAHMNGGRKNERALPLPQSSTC
# HER2 (ErbB2), sequence (P04626 676-1255 limits assumed): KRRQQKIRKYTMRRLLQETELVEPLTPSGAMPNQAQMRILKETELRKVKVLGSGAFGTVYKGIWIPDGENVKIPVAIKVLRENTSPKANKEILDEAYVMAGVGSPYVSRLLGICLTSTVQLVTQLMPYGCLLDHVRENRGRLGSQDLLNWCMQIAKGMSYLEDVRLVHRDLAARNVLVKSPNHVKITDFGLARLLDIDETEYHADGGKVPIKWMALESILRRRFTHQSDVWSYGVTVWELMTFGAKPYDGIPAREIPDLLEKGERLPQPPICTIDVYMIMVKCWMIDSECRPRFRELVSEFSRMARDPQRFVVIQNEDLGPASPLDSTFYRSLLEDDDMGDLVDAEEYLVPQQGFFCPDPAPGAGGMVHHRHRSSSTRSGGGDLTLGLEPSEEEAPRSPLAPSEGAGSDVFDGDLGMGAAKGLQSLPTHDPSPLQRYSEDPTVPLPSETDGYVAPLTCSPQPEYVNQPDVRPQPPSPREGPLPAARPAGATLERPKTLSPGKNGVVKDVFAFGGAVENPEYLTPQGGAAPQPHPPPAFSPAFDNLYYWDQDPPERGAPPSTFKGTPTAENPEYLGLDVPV
structure (smiles),measurement,setting,value
C=CC(=O)Nc1cc(Nc2nccc(-c3cn(C)c4ccccc34)n2)c(OC)cc1N(C)CCN(C)C [AZD9291],pIC50,NCI-H820 cells,~6.00
same,duration of response,"[1]; both patients, 20 mg/day",approximately 9 months
same,progression-free time,"[1]; both patients, 20 mg/day, RECIST 1.1",approximately 11 months
same,tumor shrinkage,"[1]; first patient, scan 1",39.7%
same,tumor shrinkage,"[1]; first patient, scan 2",48.3%
same,tumor shrinkage,"[1]; first patient, scan 3",48.3%
same,tumor shrinkage,"[1]; first patient, scan 4",48.3%
same,tumor shrinkage,"[1]; first patient, scan 5",51.7%
same,tumor shrinkage,"[1]; second patient, scan 1",38%
same,tumor shrinkage,"[1]; second patient, scan 2",39.3%
same,tumor shrinkage,"[1]; second patient, scan 3",56.7%
same,tumor shrinkage,"[1]; second patient, scan 4",62%
same,tumor shrinkage,"[1]; second patient, scan 5",59.3%
same,inhibition of phosphorylation of HER2,HER2 (ErbB2),moderate potency levels
same,bioavailability,[2],good bioavailability
same,clearance,[2],moderate clearance
same,tissue distribution,[2],widely distributed in tissues
same,half-life,"[2]; plasma, po",~3 h
same,activity against lines harboring EGFR T790M,[3],low nanomolar activity
same,sensitivity of parental EGFRm+ lines,[4],sensitive
same,off-target kinase activity / secondary target profile,[5]; 1 μM,minimal off-target kinase activity
same,inhibition at 1 μM,"[5]; ErbB2/4, ACK1, ALK, BLK, BRK, MLK1 and MNK2",greater than 60%
same,tumor response,[6],significant tumor shrinkage
same,phospho-EGFR and downstream signalling,[7]; after 6 hours,strongly inhibited
same,phospho-EGFR staining,[7]; after the 30 hour time point,remained significantly diminished
same,activity against lines harboring non-T790M resistance,[8],not effective
same,pIC50,EBC-1 cells,~6.00
same,body weight loss,[9],less than 5 % of starting body weight
same,diarrhea events,[10]; 20 mg once daily,one reported CTCAE Grade 1 diarrhea
same,rash events,[10]; 20 mg once daily,no rash events
same,blood glucose levels,[10]; during the study,No significant aberration
same,tumors with no visible tumor,"[11]; following 40 daily doses with 5 mg/kg, sustained out to 200 days",8 of 8
same,lowest dose with tumor shrinkage observed,"[11]; once daily, after 14 days",2.5 mg/kg/day
same,activity towards IGF-1R,IGF-1R,did not exhibit significant activity
same,tumor growth inhibition,A431 xenografts,moderate tumor growth inhibition
same,pIC50,[12],7.10
same,half-life,"[13]; human, plasma, po, 20 mg",≥ 50 h
same,reduction in tumor volume by MRI,"[14]; AZD9291 5 mg/kg/day, afatinib 7.5 mg/kg/day, 5 of 5 mice",~80%
same,target inhibition in treated tumors,[15],observed target inhibition
same,change in blood glucose or insulin levels,[16],did not cause a significant change
same,"effect on phospho-EGFR of L861Q, G719S and exon 19 insertion",[17],somewhat less potent compared with the AZ5104 metabolite
"COc1cc2ncnc(Nc3ccc(F)c(Cl)c3)c2cc1OCCCN1CCOCC1 [gefitinib, reference compound]",time until tumors began to re-grow,[11]; 6.25 mg/kg/day,approximately 90 days
same,tumor regression,"[11]; 6.25 mg/kg/day, compared with AZD9291 5 mg/kg",less tumor regression
C=CC(=O)Nc1cc(Nc2nccc(-c3c[nH]c4ccccc34)n2)c(OC)cc1N(C)CCN(C)C [AZ5104],inhibition of phosphorylation of HER2,HER2 (ErbB2),more potency than AZD9291
same,tumor response,[6],effective in shrinking tumors
same,pIC50,[18],7.48
same,activity towards IGF-1R,IGF-1R,did not exhibit significant activity
same,potency across cell lines in phenotypic assay,[19]; compared to AZD9291,much greater potency across cell lines
same,potency against EGFRvIII mutant,[20],higher level of activity
same,half-life,[13]; [26],at least 50 hours
same,tumor response,[14]; AZ5104 5 mg/kg/day,effective in shrinking tumors
C=CC(=O)Nc1cc(Nc2nccc(-c3cn(C)c4ccccc34)n2)c(OC)cc1N(C)CCNC [AZ7550],total exposure levels (AUC) compared to the parent compound,[2]; circulating metabolite in plasma,approximately 68%
same,potency across cell lines in phenotypic assay,[19],broadly similar
same,half-life,[13]; [26],at least 50 hours
same,potency and profile against mutant and wild-type cell lines,[21],very similar potency and profile to AZD9291
CNC(=O)CN1CCC(Oc2cc3c(Nc4cccc(Cl)c4F)ncnc3cc2OC)CC1 [AZD8931],sensitivity of parental EGFRm+ lines,[4],sensitive
COc1cc2ncnc(Nc3ccc(F)c(Cl)c3)c2cc1NC(=O)/C=C/CN1CCCCC1 [dacomitinib],"potency towards wild-type EGFR, Sytox",[22],much greater potency towards wild-type EGFR
same,"activity against T790M lines, Sytox",[23],much less activity against T790M lines
C#Cc1cccc(Nc2ncnc3cc(OCCOC)c(OCCOC)cc23)c1 [erlotinib],tumor sensitivity,[24],sensitive
same,sensitivity of parental EGFRm+ lines,[4],sensitive
same,tumor sensitivity,[25],resistant
